Reference: ChEMBL document CHEMBL5137022, “Antitumor Activity of Rutaecarpine in Human Colorectal Cancer Cells by Suppression of Wnt/β-Catenin Signaling” (J Nat Prod, 2022)
pIC50: −log10 of the molar value. Active and inactive are the calls of the source. No cut-off for these calls is given here.

Assays:
LS174T [1] = assay: Induction of cell cycle arrest in human LS174T cells assessed as accumulation of cells at G2/M phase at 20 uM measured at 12 hrs by RNase A/propidium iodide staining based flow cytometric analysis (reference value: 12.9 %); format: functional
Mus musculus [2] = assay: Downregulation of cyclin D1 expression in tumor of BALB/c mouse xenografted with human LS174T cells at 10 to 30 mg/kg, ip administered 3 times per week for 21 days by immunohistochemical based analysis; format: functional, organism-based; conditions: dose 10-30 mg/kg, time 21.0 day
LS174T [3] = assay: Induction of cell cycle arrest in human LS174T cells assessed as accumulation of cells at G0/G1 phase at 20 uM measured at 12 hrs by RNase A/propidium iodide staining based flow cytometric analysis (reference value: 74.8 %); format: functional
[4] = Inhibition of Wnt/beta-catenin transactivation signalling in HEK293 cells transfected with renilla luciferase and TOPFlash reporter gene incubated for 24 hrs by dual-luciferase assay; format: cell-based; conditions: Homo sapiens, HEK293, 24 h
LS174T [5] = assay: Induction of cell cycle arrest in human LS174T cells assessed as accumulation of cells at S phase at 20 uM measured at 24 hrs by RNase A/propidium iodide staining based flow cytometric analysis (reference value: 11.4 %); format: functional
Mus musculus [6] = assay: Downregulation of cyclin-D1 expression in tumor of BALB/c mouse xenografted with human LS174T cells at 10 to 30 mg/kg, ip administered 3 times per week for 21 days by Western blot analysis; format: functional, organism-based; conditions: dose 10-30 mg/kg, time 21.0 day
LS174T [7] = assay: Inhibition of cell invasion in human LS174T cells incubated for 24 hrs by transwell assay; format: functional, cell-based; conditions: dose 2-8 µM, DDE = dose-dependent effect
LS174T [8] = assay: Induction of cell cycle arrest in human LS174T cells assessed as accumulation of cells at G0/G1 phase at 20 uM measured at 36 hrs by RNase A/propidium iodide staining based flow cytometric analysis (reference value: 74.8 %); format: functional
LS174T [9] = assay: Induction of cell cycle arrest in human LS174T cells assessed as accumulation of cells at S phase at 10 uM measured after 24 hrs by RNase A/propidium iodide staining based flow cytometric analysis (reference value: 14.5 %); format: functional
LS174T [10] = assay: Induction of cell cycle arrest in human LS174T cells assessed as accumulation of cells at G0/G1 phase at 5 uM measured after 24 hrs by RNase A/propidium iodide staining based flow cytometric analysis (reference value: 71.7 %); format: functional
LS174T [11] = assay: Downregulation of survivin expression in human LS174T cells at 2.5 to 20 uM incubated for 24 hrs by Western blot analysis; format: functional, cell-based; conditions: dose 2.5-20 µM
LS174T [12] = assay: Induction of apoptosis in human LS174T cells assessed as increase in late apoptotic cells at 20 to 40 uM measured after 48 hrs by AnnexinV-FITC/PI staining based flowcytometry analysis; format: functional, cell-based; conditions: dose 20-40 µM
LS174T [13] = assay: Induction of apoptosis in human LS174T cells assessed as upregulation of cleaved caspase-9 expression measured after 48 hrs by Western blot analysis; format: functional, cell-based; conditions: dose 20-40 µM, DDE = dose-dependent effect
LS174T [14] = assay: Induction of cell cycle arrest in human LS174T cells assessed as accumulation of cells […] at 20 uM measured after 24 hrs by RNase A/propidium iodide staining based flow cytometric analysis (reference value: 1.3 %); format: functional
LS174T [15] = assay: Downregulation of MMP-7 expression in human LS174T cells at up to 8 uM incubated for 24 hrs by Western blot analysis; format: functional, cell-based
[16] = Toxicity in BALB/c nude mouse xenografted with human LS174T cells assessed as effect on body weight at 10 to 30 mg/kg, ip administered 3 times per week for 21 days; format: organism-based; conditions: in vivo, 504 h, dose 10-30 mg/kg, time 21 day
LS174T [17] = assay: Induction of apoptosis in human LS174T cells assessed as total cell death at 20 uM measured after 48 hrs by AnnexinV-FITC/PI staining based flowcytometry analysis relative to control; format: functional
LS174T [18] = assay: Induction of cell cycle arrest in human LS174T cells assessed as accumulation of cells at G2/M phase at 20 uM measured at 36 hrs by RNase A/propidium iodide staining based flow cytometric analysis (reference value: 12.9 %); format: functional
LS174T [19] = assay: Induction of cell cycle arrest in human LS174T cells assessed as accumulation of cells at sub-G1 phase at 20 uM measured at 12 hrs by RNase A/propidium iodide staining based flow cytometric analysis (reference value: 0.7 %); format: functional
CCD-18Co = assay: Antiproliferative activity against human CCD-18Co cells assessed as reduction in cell viability measured after 72 hrs by SRB assay; format: functional, cell-based
LS174T [20] = assay: Induction of cell cycle arrest in human LS174T cells assessed as upregulation of p21 expression measured after 24 hrs by Western blot analysis; format: functional, cell-based; conditions: dose 5-20 µM, DDE = dose-dependent effect
LS174T [21] = assay: Induction of cell cycle arrest in human LS174T cells assessed as accumulation of cells at S phase at 5 uM measured after 24 hrs by RNase A/propidium iodide staining based flow cytometric analysis (reference value: 14.5 %); format: functional
Mus musculus [22] = assay: Downregulation of MMP-7 expression in tumor of BALB/c mouse xenografted with human LS174T cells at 10 to 30 mg/kg, ip administered 3 times per week for 21 days by Western blot analysis; format: functional, organism-based; conditions: dose 10-30 mg/kg, time 21.0 day
LS174T [23] = assay: Induction of cell cycle arrest in human LS174T cells assessed as downregulation of cyclin D1 expression measured after 24 hrs by Western blot analysis; format: functional, cell-based; conditions: dose 5-20 µM, DDE = dose-dependent effect
LS174T [24] = assay: Induction of cell cycle arrest in human LS174T cells assessed as accumulation of cells at S phase at 20 uM measured at 12 hrs by RNase A/propidium iodide staining based flow cytometric analysis (reference value: 11.4 %); format: functional
LS174T [25] = assay: Induction of cell cycle arrest in human LS174T cells assessed as accumulation of cells at G0/G1 phase at 20 uM measured at 48 hrs by RNase A/propidium iodide staining based flow cytometric analysis (reference value: 74.8 %); format: functional
LS174T [26] = assay: Induction of cell cycle arrest in human LS174T cells assessed as accumulation of cells at G2/M phase at 20 uM measured at 24 hrs by RNase A/propidium iodide staining based flow cytometric analysis (reference value: 12.9 %); format: functional
LS174T [27] = assay: Antitumor activity against human LS174T cells xenografted in BALB/c nude mouse assessed as reduction in tumor volume at 10 mg/kg, ip administered 3 times per week for 21 days by electronic caliper method; format: functional; design: scale not given: the % may be the effect or the level left; conditions: time 21 day
LS174T [28] = assay: Induction of apoptosis in human LS174T cells assessed as upregulation of cleaved PARP expression measured after 48 hrs by Western blot analysis; format: functional, cell-based; conditions: dose 20-40 µM, DDE = dose-dependent effect
LS174T [29] = assay: Downregulation of snail expression in human LS174T cells at up to 8 uM incubated for 24 hrs by Western blot analysis; format: functional, cell-based
LS174T [30] = assay: Induction of cell cycle arrest in human LS174T cells assessed as accumulation of cells at G0/G1 phase at 20 uM measured after 24 hrs by RNase A/propidium iodide staining based flow cytometric analysis (reference value: 71.7 %); format: functional
Mus musculus [31] = assay: Downregulation of c-Myc expression in tumor of BALB/c mouse xenografted with human LS174T cells at 10 to 30 mg/kg, ip administered 3 times per week for 21 days by immunohistochemical based analysis; format: functional, organism-based; conditions: dose 10-30 mg/kg, time 21.0 day

In the case of `O=c1c2ccccc2nc2n1CCc1c-2[nH]c2ccccc12` [RUTAECARPINE], the Activity (LS174T [1]) was 16.8%, the Activity (Mus musculus [2]) was “Active” and the Activity (LS174T [3]) was 80.3%. For the same compound, the pIC50 [4] was 5.37, the Activity (LS174T [5]) was 2.2% and the Activity (Mus musculus [6]) was “Active”. For the same compound, the inhibition (LS174T [7]) was “Dde”, the Activity (LS174T [8]) was 87.4% and the Activity (LS174T [9]) was 7.2%. For the same compound, the Activity (LS174T [10]) was 75.8%, the Activity (LS174T [11]) was “Active” and the Activity (LS174T [12]) was “Active”. For the same compound, the Activity (LS174T [13]) was “Dde”, the Activity (LS174T [14]) was 1.5% and the Activity (LS174T [15]) was “Active”. For the same compound, the Activity [16] was “Non-Toxic”, the Activity (LS174T [17]) was 24.7% and the Activity (LS174T [18]) was 4.5%. The Activity (LS174T [19]) was 0.5%, the pIC50 (CCD-18Co) was < 4.30 and the Activity (LS174T [20]) was “Dde”. The Activity (LS174T [21]) was 10.7%, the Activity (Mus musculus [22]) was “Active” and the Activity (LS174T [23]) was “Dde”. It also gave an Activity (LS174T [24]) of 2.4%, an Activity (LS174T [25]) of 76.9% and an Activity (LS174T [26]) of 5.6%. The Activity (LS174T [27]) was 25.9%, the Activity (LS174T [28]) was “Dde” and the Activity (LS174T [29]) was “Active”. The Activity (LS174T [30]) was 87.3% and the Activity (Mus musculus [31]) was “Active”.
